According to BigSolDB 2.1:

Compound: O=C(O)c1cccc(C(=O)O)c1
- solubility (mole fraction) (in isopropanol, 278.55 K): 0.00218
- solubility (mole fraction) (in isopropanol, 279.87 K): 0.00226
- solubility (mole fraction) (in isopropanol, 283.25 K): 0.00255
- solubility (mole fraction) (in isopropanol, 288.15 K): 0.00291
- solubility (mole fraction) (in isopropanol, 293.15 K): 0.00325
- solubility (mole fraction) (in isopropanol, 298.15 K): 0.00396
- solubility (mole fraction) (in isopropanol, 303.05 K): 0.00459
- solubility (mole fraction) (in isopropanol, 308.25 K): 0.00535
- solubility (mole fraction) (in isopropanol, 313.15 K): 0.00607
- solubility (mole fraction) (in isopropanol, 318.25 K): 0.00675
- solubility (mole fraction) (in methanol, 278.15 K): 0.00253
- solubility (mole fraction) (in methanol, 283.25 K): 0.00276
- solubility (mole fraction) (in methanol, 288.05 K): 0.00314
- solubility (mole fraction) (in methanol, 293.25 K): 0.00346
- solubility (mole fraction) (in methanol, 298.75 K): 0.00379
- solubility (mole fraction) (in methanol, 302.65 K): 0.00411
- solubility (mole fraction) (in methanol, 307.95 K): 0.00456
- solubility (mole fraction) (in n-butanol, 278.06 K): 0.00187
- solubility (mole fraction) (in n-butanol, 283.11 K): 0.00216
- solubility (mole fraction) (in n-butanol, 288.27 K): 0.00234
- solubility (mole fraction) (in n-butanol, 293.3 K): 0.00265
- solubility (mole fraction) (in n-butanol, 298.06 K): 0.00315
- solubility (mole fraction) (in n-butanol, 303.66 K): 0.00366
- solubility (mole fraction) (in n-butanol, 308.36 K): 0.00386
- solubility (mole fraction) (in n-butanol, 312.66 K): 0.00474
- solubility (mole fraction) (in n-butanol, 317.94 K): 0.0052
- solubility (mole fraction) (in n-hexanol, 298.48 K): 0.00244
- solubility (mole fraction) (in n-hexanol, 302.97 K): 0.0032
- solubility (mole fraction) (in n-hexanol, 308.15 K): 0.00362
- solubility (mole fraction) (in n-hexanol, 312.7 K): 0.00424
- solubility (mole fraction) (in n-hexanol, 317.67 K): 0.00477
- solubility (mole fraction) (in n-hexanol, 320.84 K): 0.00544
- solubility (mole fraction) (in n-pentanol, 303.05 K): 0.00408
- solubility (mole fraction) (in n-pentanol, 308.05 K): 0.00532
- solubility (mole fraction) (in n-pentanol, 313.15 K): 0.00594
- solubility (mole fraction) (in n-pentanol, 318.15 K): 0.00651
- solubility (mole fraction) (in n-pentanol, 323.05 K): 0.0074
- solubility (mole fraction) (in n-propanol, 278.15 K): 0.00169
- solubility (mole fraction) (in n-propanol, 280.84 K): 0.0019
- solubility (mole fraction) (in n-propanol, 283.34 K): 0.0022
- solubility (mole fraction) (in n-propanol, 288.17 K): 0.00249
- solubility (mole fraction) (in n-propanol, 293.15 K): 0.00268
- solubility (mole fraction) (in n-propanol, 298.35 K): 0.0032
- solubility (mole fraction) (in n-propanol, 304.05 K): 0.00377
- solubility (mole fraction) (in n-propanol, 308.25 K): 0.00425
- solubility (mole fraction) (in n-propanol, 313.15 K): 0.00473
- solubility (mole fraction) (in n-propanol, 317.55 K): 0.00528
- solubility (mole fraction) (in sec-butanol, 283.05 K): 0.00145
- solubility (mole fraction) (in sec-butanol, 288.05 K): 0.00172
- solubility (mole fraction) (in sec-butanol, 293.15 K): 0.00209
- solubility (mole fraction) (in sec-butanol, 298.25 K): 0.00235
- solubility (mole fraction) (in sec-butanol, 303.45 K): 0.00263
- solubility (mole fraction) (in sec-butanol, 308.25 K): 0.00311
- solubility (mole fraction) (in sec-butanol, 313.25 K): 0.00346
- solubility (mole fraction) (in sec-butanol, 318.15 K): 0.00391
